We go through eleven molecules from ChEMBL document CHEMBL2073821, “Immunohistochemical and functional characterization of pH-dependent intestinal absorption of weak organic acids by the monocarboxylic acid transporter MCT1” (J Pharm Pharmacol, 1999).

Common to all, as to type: functional, cell-based
Holding throughout (conditions): MDA-MB-231

Test [1] concerns the target T1, Monocarboxylate transporter 1 (Rattus norvegicus) (UniProt P53987).
T1 sequence (whole entry): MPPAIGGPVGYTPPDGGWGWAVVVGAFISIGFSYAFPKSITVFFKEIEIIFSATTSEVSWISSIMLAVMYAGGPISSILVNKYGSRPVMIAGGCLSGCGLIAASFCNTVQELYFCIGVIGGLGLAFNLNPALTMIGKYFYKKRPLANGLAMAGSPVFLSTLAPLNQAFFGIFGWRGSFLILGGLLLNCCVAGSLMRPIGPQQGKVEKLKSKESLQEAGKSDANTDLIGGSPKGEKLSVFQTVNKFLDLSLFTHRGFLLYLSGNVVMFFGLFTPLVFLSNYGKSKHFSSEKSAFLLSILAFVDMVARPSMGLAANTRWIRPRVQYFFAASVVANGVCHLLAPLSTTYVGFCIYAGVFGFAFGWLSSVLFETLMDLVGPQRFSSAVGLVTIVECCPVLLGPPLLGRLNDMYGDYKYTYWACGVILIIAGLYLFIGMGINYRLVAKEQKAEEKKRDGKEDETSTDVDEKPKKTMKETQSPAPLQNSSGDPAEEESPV
The test is described as follows: TP_TRANSPORTER: uptake of Butyric acid at a concentration of 137uM in MCT1-expressing MDA-MB231 cells.

In test [2] the target is T1, Monocarboxylate transporter 1 (Rattus norvegicus). The test is described as follows: TP_TRANSPORTER: uptake of Glycylsarcosine at a concentration of 17uM in MCT1-expressing MDA-MB231 cells.
Test [3] shares this target. The test is described as follows: TP_TRANSPORTER: uptake of Foscarnet at a concentration of 3uM in MCT1-expressing MDA-MB231 cells.
For test [4] the target is unchanged. The test is described as follows: TP_TRANSPORTER: uptake of Methotrexate at a concentration of 0.03uM in MCT1-expressing MDA-MB231 cells.
For test [5] the target is unchanged. The test is described as follows: TP_TRANSPORTER: uptake of Propionic acid at a concentration of 7uM in MCT1-expressing MDA-MB231 cells.
The target is the same in test [6]. Nature of the test: TP_TRANSPORTER: uptake of P-Aminohippuric acid at a concentration of 9uM in MCT1-expressing MDA-MB231 cells.
Test [7] shares this target. Nature of the test: TP_TRANSPORTER: uptake of Valproic acid at a concentration of 19uM in MCT1-expressing MDA-MB231 cells.
Test [8] shares this target. Nature of the test: TP_TRANSPORTER: uptake of D-Lactic Acid at a concentration of 3uM in MCT1-expressing MDA-MB231 cells.
Test [9] shares this target. The test is described as follows: TP_TRANSPORTER: uptake of Faropenem at a concentration of 76uM in MCT1-expressing MDA-MB231 cells.
Test [10] shares this target. The test is described as follows: TP_TRANSPORTER: uptake of Mevalonic acid at a concentration of 67uM in MCT1-expressing MDA-MB231 cells.
The target is the same in test [11]. Nature of the test: TP_TRANSPORTER: uptake of Glutamic acid at a concentration of 0.01uM in MCT1-expressing MDA-MB231 cells.

Molecules are shown by their SMILES. Square brackets hold non-standard residues; d marks the D form. Peptide text beside a SMILES is read from it. Sar = CNCC(=O)O

Turning to `CCCC(=O)O`, the Activity entry in test [1] was “substrate [+]”. With `CN(CC(=O)O)C(=O)CN` (H-Gly-[Sar]-OH), in test [2], the Activity entry was “is not a substrate [-]”. As to `O=C(O)P(=O)(O)O`, the Activity entry in test [3] is “substrate [+]”.

As to `CN(Cc1cnc2nc(N)nc(N)c2n1)c1ccc(C(=O)N[C@@H](CCC(=O)O)C(=O)O)cc1`, in test [4], the Activity entry is “is not a substrate [-]”. For `CCC(=O)O`, in test [5], the Activity result is “substrate [+]”. For `Nc1ccc(C(=O)NCC(=O)O)cc1`, in test [6], the Activity entry is “is not a substrate [-]”.

For `CCCC(CCC)C(=O)O`, the Activity entry in [7] is “is not a substrate [-]”. In the case of `C[C@@H](O)C(=O)O`, the Activity entry in test [8] was “substrate [+]”.

On to `C[C@@H](O)[C@H]1C(=O)N2C(C(=O)O)=C([C@H]3CCCO3)S[C@H]12`, for which, in test [9], the Activity entry was “is not a substrate [-]”. With `C[C@@](O)(CCO)CC(=O)O`, in test [10], the Activity entry is “is not a substrate [-]”. With `N[C@@H](CCC(=O)O)C(=O)O`, the Activity entry in test [11] was “is not a substrate [-]”.
